Measured values as given in patent publication US12274729B2, “Formulations and methods for skin care or hyaluronic acid synthesis” (AMILYFE, LLC, priority 2022, dated 2025).

Key:
[1] = test system: barrier marker genes in differentiated normal human epidermal keratinocytes (NHEK); assay: qPCR mRNA expression of barrier marker genes in differentiated NHEK; assay type: cell-based; details: qPCR data from two donors
Experimental: Treatment time—4 h. […] Data from two independent experiments. Exemplary barrier marker genes examined as follows: Epidermal growth factor (EGF); fibroblast growth factor 2 (FGF2); platelet derived growth factor (PDGF); Carnitine Palmitoyltransferase 2 (CPT2); Transglutaminase 4 (TGM4); Peroxisome Proliferator Activated Receptor Delta (PPARD); TNF Receptor Superfamily Member 10d (TNFRSF10D).
To test the effect of amino acid treatment on epithelial skin barrier, a cellular model of differentiated normal human epidermal keratinocytes (NHEK) was utilized. Commercially available NHEK (ATCC), derived from three diverse healthy donors, were used. Based on a multivariate analysis, three amino acids for the treatment: Ser, Gln and Gly were selected.
Using gene arrays, comparative analyses of two datasets were performed in three diverse donors focusing on consistently differentially [filter criterion of fold change 1.5 (positive or negative) and p-value <0.05)] expressed genes following treatment with various amino acids and combinations thereof. qPCR was used to assess the mRNA expression results. The qPCR results confirmed the array results pertaining to differential expression, thereby validating the panel of genes.
mRNA is extracted, converted to cDNA, and analyzed by qPCR method using custom TaqMan array 384-well plates (Thermo Fisher Scientific) containing 34 of the above-mentioned genes. Four control housekeeping genes are included to normalize the mRNA expression: GAPDH, POLR2A, YWHAZ and PGK1. The array plate will contain 38 genes in total and 10 samples can be analyzed in one run of qPCR.

[2] = Preliminary screens of amino acids
Experimental: In addition to the amino acid combinations described above, several other combinations are tested that include, e.g., Trp and/or Arg to determine if inclusion of these amino acids confers additional dermatological benefits. […] At the outset, the following combinations of amino acids are tested: Ala, Gln, Gly, Ser (combo #1); Ala, Gln, Gly, Ser, Val, Ile (combo #2); Ala, Gln, Gly, Ser, Val; Ala, Gln, Gly, Ser, Ile; Ala, Gln, Gly, Ser, Ile, Val, Trp; Ala, Gln, Gly, Ser, Ile, Val, Arg; and Ala, Gln, Gly, Ser, Ile, Val, Trp, Arg.

[3] = test system: HAS3 mRNA in human-derived epidermal keratinocytes (NHEK); assay: HAS3 mRNA fold change (qPCR) in keratinocytes; assay type: cell-based; details: 4GAA 4 mM, ROL 10 μM
[4] = test system: HAS2 mRNA in human-derived epidermal keratinocytes (NHEK); assay: HAS2 mRNA fold change (qPCR) in keratinocytes; assay type: cell-based; details: 4GAA 4 mM, ROL 10 μM
[5] = Donor O and Donor R keratinocytes, 24 h in complete medium
[6] = NHEK Donors E, G, O, R, T, 4 h in amino acid-deprived medium

Compound	effectiveness in comparative analysis of qPCR data with scoring system [1]	also measured
C[C@H](N)C(=O)O [Ala, alanine]	most effective	
N=C(N)NCCC[C@H](N)C(=O)O [Arg, arginine]		effect in preliminary screens [2]: positive effects
N[C@@H](CC(=O)O)C(=O)O [Asp, aspartic acid]	least effective	
N[C@@H](CS)C(=O)O [Cys, cysteine]	least effective	
NC(=O)CC[C@H](N)C(=O)O [Gln, glutamine]	most effective	
NCC(=O)O [Gly, glycine]	most effective	
O=C(O)[C@@H]1CCCN1 [Pro, proline]	least effective	
CC1=C(/C=C/C(C)=C/C=C/C(C)=C/CO)C(C)(C)CCC1 [ROL, retinol]		HAS3 mRNA gene expression [3, 5]: upregulated; HAS3 gene expression [3, 6]: upregulated; HAS2 mRNA gene expression [4, 5]: upregulated; HAS2 gene expression [4, 6]: upregulated
N[C@@H](CO)C(=O)O [Ser, serine]	most effective	
C[C@@H](O)[C@H](N)C(=O)O [Thr, threonine]	least effective	
N[C@@H](Cc1c[nH]c2ccccc12)C(=O)O [Trp, tryptophan]		effect in preliminary screens [2]: positive effects
N[C@@H](Cc1ccc(O)cc1)C(=O)O [Tyr, tyrosine]	least effective	
